Test results from patent publication US20200181284A1, “EPIGENETIC INHIBITORS FOR SENSITIZING HEMATOLOGIC OR OTHER MALIGNANCIES TO GLUCOCORTICOID THERAPY” (UNIVERSITY OF SOUTHERN CALIFORNIA, priority 2017, published 2020).
“Also recorded” adds a separate entry of the source. Each block holds one molecule with its values, some of them ahead of it.

Key:
hG9a = target: T1, hG9a (Homo sapiens, UniProt Q96KQ7); experiment: Methylation of HA-hG9a in Cos-7 cells (pan met-K immunoprecipitation/immunoblot); format: cell-based, African green monkey; settings: Cos-7 cells, 24 h
T1 construct: transfected with a plasmid encoding full length HA-hG9a and treated with 2 μM UNC0646; expressed in transfected cells; host or cells: Cos-7
T1 sequence (Q96KQ7 1-1210): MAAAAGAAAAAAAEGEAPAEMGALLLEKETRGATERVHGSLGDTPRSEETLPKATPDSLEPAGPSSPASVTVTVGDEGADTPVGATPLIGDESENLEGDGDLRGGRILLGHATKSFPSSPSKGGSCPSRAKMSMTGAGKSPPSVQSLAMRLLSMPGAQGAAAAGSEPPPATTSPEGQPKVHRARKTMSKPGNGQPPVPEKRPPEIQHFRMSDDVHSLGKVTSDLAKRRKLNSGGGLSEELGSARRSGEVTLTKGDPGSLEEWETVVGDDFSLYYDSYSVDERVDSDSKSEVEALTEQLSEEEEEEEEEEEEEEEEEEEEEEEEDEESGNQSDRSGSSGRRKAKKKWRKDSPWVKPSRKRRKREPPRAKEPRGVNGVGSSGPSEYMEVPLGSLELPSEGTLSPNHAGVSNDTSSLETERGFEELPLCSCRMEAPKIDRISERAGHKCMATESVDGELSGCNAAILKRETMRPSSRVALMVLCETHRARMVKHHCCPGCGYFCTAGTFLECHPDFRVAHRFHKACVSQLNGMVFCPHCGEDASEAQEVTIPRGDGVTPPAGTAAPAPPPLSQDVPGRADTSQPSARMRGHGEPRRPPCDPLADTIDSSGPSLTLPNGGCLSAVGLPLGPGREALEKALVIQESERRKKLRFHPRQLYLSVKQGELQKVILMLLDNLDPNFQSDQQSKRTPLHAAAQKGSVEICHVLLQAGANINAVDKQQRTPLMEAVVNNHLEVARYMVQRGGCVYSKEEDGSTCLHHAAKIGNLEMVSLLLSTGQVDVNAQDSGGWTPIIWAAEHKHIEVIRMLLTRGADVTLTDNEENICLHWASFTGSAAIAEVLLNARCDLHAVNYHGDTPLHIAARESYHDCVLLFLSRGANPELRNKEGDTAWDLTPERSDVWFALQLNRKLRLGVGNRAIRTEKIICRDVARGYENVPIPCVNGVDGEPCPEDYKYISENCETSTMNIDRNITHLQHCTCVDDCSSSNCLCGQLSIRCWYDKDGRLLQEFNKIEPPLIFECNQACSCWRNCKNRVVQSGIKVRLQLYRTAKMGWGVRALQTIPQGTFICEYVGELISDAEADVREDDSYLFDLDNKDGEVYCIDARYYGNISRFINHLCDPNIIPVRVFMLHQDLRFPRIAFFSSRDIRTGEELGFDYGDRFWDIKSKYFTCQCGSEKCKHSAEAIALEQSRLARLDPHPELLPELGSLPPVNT
Protocol: Cells were transiently transfected (where indicated) using Lipofectamine 2000 (Invitrogen) with 5 μg each of the indicated plasmids according to the manufacturer's protocol. […] Protein extracts were incubated with 1 μg of the indicated primary antibodies overnight at 4° C. with shaking. Protein A/G Plus Agarose (Santa Cruz sc-2003) beads were added and the mixture was incubated 2 hr at 4° C. The immunoprecipitates were separated on SDS-PAGE. Immunoblotting was conducted with primary antibodies against HA epitope (3F10 Roche Applied Science); G9a (G6919), FLAG (F1804), (3-actin (A5441), or GAPDH (G9545) from Sigma; aurora kinase B (ab2254), HP1γ (ab10480), HP1γ (ab56978), phospho-593-HP1γ (ab45270) or pan methyllysine (ab23366) from Abcam; GR (sc-8992) from Santa Cruz; GLP (09-078), or pan phospho-threonine (AB1607) from Millipore; phospho-S211-GR (#4161), H3K9me3 (#13969), H3S10ph (#53348), Histone H3 (#4499) from Cell signaling; or E-cadherin (610182) from BD transduction laboratories. Secondary antibodies from Santa Cruz Biotechnology (anti-rat) and Promega (anti-rabbit and anti-mouse) were used for chemiluminescence detection using Super Signal West Dura (Thermo Scientific) for proteins with low expression levels and ECL prime detection reagent (Amersham) for all other proteins according to the manufacturers' instructions. In immunoprecipitation experiments 3% of the input of each sample was analyzed by immunoblot using the antibodies listed.
Lysates were immunoprecipitated (IP) with pan met-K antibody and immunoblotted with HA antibody (top), or the usage of the two antibodies was reversed (bottom). Expression of HA-tagged proteins and β-actin (loading control) in the unfractionated extracts is shown at the bottom (Input). For FIG. 17D, Cos-7 cells were transfected with a plasmid encoding full length HA-hG9a and treated with 2 μM UNC0646 or vehicle DMSO for 24 h. Lysates were immunoprecipitated with pan met-K antibody and immunoblotted with HA antibody (top), or the usage of the two antibodies was reversed (bottom).
Lysates were immunoprecipitated with pan met-K antibody and immunoblotted with HA antibody (top).

NALM6 cells = experiment: Cell death assay (Presto Blue, 72 h) with dex plus inhibitor; format: cell-based, human; settings: NALM-6, 16 nM Alisertib, 72 h
Protocol: Cells were plated in CellStar low evaporation lid 96-well round-bottom plate at a density of 100,000 cells/ml. Directly after plating, cells were treated in triplicate with serial dilutions of dexamethasone or vehicle control (0.1% ethanol). After 72 h, cell viability of each well was analyzed in duplicate using the Presto Blue Assay Reagent (Life Technologies). Fluorescence was measured and data were analyzed with Prism6 software.
FIGS. 40A, 40B, 40C, 40D-1, 40D-2, 40D-3, and 40D-4 show Aurora kinase B inhibitors sensitizing NALM6 cells to GC-induced cell death. As shown in FIGS. 40A and 40B, NALM6 cells were treated with the indicated dex concentration in addition to 0.75 μM ZM447439 (FIG. 40A), 16 nM AZD2811 (FIG. 40B), or equivalent volume of vehicle DMSO for 72 h, and cell survival was measured by a fluorescence metabolic assay. In each condition, the value measured with dex was normalized to the fluorescence value measured with ethanol. Percentage of survival is shown as the mean±SEM of 4 independent experiments and p-values for individual dex concentrations were calculated using a paired t-test. *p≤0.05, **p≤0.01, * * *p≤0.001. F-test comparing the two curves: p≤0.001. Insets show the EC50s that were calculated as the concentration at which half the cells remained alive, compare to vehicle controls. Error bars depict the SEM of 4 independent experiments and p-values were calculated to compare AURKB inhibitor treatment to DMSO using a paired t-test ** p≤0.01, * * *p≤0.001. […] The indicated proteins were then examined by immunoblot. As shown in FIGS. 40D-1, 40D-2, 40D-3, and 40D-4, NALM6 cells pre-treated with AZD2811 (16 nM) or DMSO for 24 h, were then treated for 8 h with 100 nM dex or ethanol. mRNA levels for the indicated GR target genes were measured by RT-qPCR and normalized to β-actin mRNA levels.
FIGS. 48A, 48B, 48C, 48D, 48E, and 48F show the effect of AURKB inhibitors on EHMT2 phosphorylation and dex-induced cell death. […] In each condition, the value measured with dex was normalized to the fluorescence value measured with ethanol. Percentage of survival is shown as the mean±SEM of 4 independent experiments and p-values for individual dex concentrations were calculated using a paired t-test. *p≤0.05, **p≤0.01, * * *p≤0.001. F-test comparing the two curves: p≤0.001. EC50s were calculated as the concentration at which half the cells remained alive, compare to vehicle controls. Error bars depict the SEM of 4 independent experiments and p-value was calculated to compare ZM treatment to DMSO using a paired t-test **p≤0.01, * * *p≤0.001. […] EC50s were calculated as the concentration at which half the cells remained alive, compare to vehicle controls. Error bars depict the SEM of 4 independent experiments and p-value was calculated to compare alisertib treatment to DMSO using a paired t-test. […] (E-F) RCH-ACV cells were treated with the indicated dex concentration in addition to 0.75 μM ZM447439 (FIG. 48E), 16 nM AZD2811 (FIG. 48F), or DMSO for 72 h, and cell survival was measured by a fluorescence metabolic assay. In each condition, the value measured with dex was normalized to the fluorescence value measured with ethanol. Percentage of survival is shown as the mean±SEM of 5 individual experiments and the p-value for each dex concentration was calculated using a paired t-test. *p≤0.05, **p≤0.01, * * *p≤0.001. F-test comparing the two curves: p≤0.001.
FIGS. 55A, 55B, and 55C show JIB-04 enhances GC-induced death of B-ALL cell line NALM6.

pan-methyllysine antibody signal on wild type hG9a (hG9a; 40 μM): strongly decreased
SMILES: Nc1ncnc2c1ncn2C(C=O)OC(C=O)CO (stereo not drawn) [Adox, adenosine dialdehyde]

SMILES: COc1cc(Nc2ncc3c(n2)-c2ccc(Cl)cc2C(c2c(F)cccc2OC)=NC3)ccc1C(=O)O [Alisertib]
cell survival with dex (NALM6 cells): not significant; also recorded: did not have any effect

SMILES: COc1cc2c(NC3CCN(C(C)C)CC3)nc(N3CCC(F)(F)CC3)nc2cc1OCCCN1CCCC1 [UNC0642]
pan-methyllysine antibody signal on wild type hG9a (hG9a; 2 μM inhibitor): strongly decreased
